Earlier results in patent US6583123B2, “Aminosugar, glycosaminoglycan, and S-adenosylmethionine composition for the treatment and repair of connective tissue” (Nutramax Laboratories, Inc., priority 1996, dated 2003).
Values belong to the compound of their own block, whether it stands above or below them.

What was measured:
fibroblasts = conditions: in vitro
[1] = not given; remark: listed apart in the source
wound healing = conditions: topical application, in vivo
osteoarthritis = conditions: humans with osteoarthritis
[2] = oral, humans, versus placebo
[3] = some forms of exogenous SAM, given orally
[4] = SAM per se (not stable salts)

SMILES: Nc1ncnc2c1ncn2[C@@H]1O[C@H](CO)[C@@H](O)[C@H]1O [adenosine]
anti-inflammatory effect (inflammation): more modest anti-inflammatory effect

SMILES: [Mn+2] [manganese]
dietary manganese absorbed by the body tissue: Approximately 40%

absorption after oral administration ([1]; humans and animals): rapidly absorbed
tissue localization of ingested glucosamine ([1]; oral): localizes to cartilage and joint tissues
SMILES: N[C@H]1C(O)O[C@H](CO)[C@@H](O)[C@@H]1O (stereo partly shown) [Glucosamine]
synthesis of collagen and glycosaminoglycans (fibroblasts): increase the synthesis of collagen and glycosaminoglycans
wound healing (wound healing): enhanced wound healing
symptoms and cartilage integrity (osteoarthritis): reproducible improvement in symptoms and cartilage integrity

stability in digestive juices [3]: stable in digestive juices
stability [4]: unstable
SMILES: C[S+](CC[C@H](N)C(=O)[O-])C[C@H]1O[C@@H](n2cnc3c(N)ncnc32)[C@H](O)[C@@H]1O (stereo partly shown) [SAM, S-Adenosylmethionine]
tolerability [2]: tolerated to the same extent as placebo
